This note sets out measurements from article PMC6779907, “Bengamides display potent activity against drug-resistant Mycobacterium tuberculosis” (Scientific Reports, 2019).

The inhibition is the share of the control response that was lost under treatment. A lower inhibition goes with a weak effect.

What all share (assay type): biochemical
Assay [1] concerns the target T1, MtMetAP1c (Mycobacterium tuberculosis, UniProt P9WK19).
T1 construct: gene map
Nature of the assay: fluorescence, hydrolysis of methionyl aminomethylcoumarin.

For assay [2], the target named is T2, HsMetAP1b (Homo sapiens, UniProt P53582).
T2 construct: gene METAP1; expressed in E. coli and purified
The description is as above.

The target of assay [3] is T3, EfMetAP1b (Enterococcus faecalis, UniProt Q832M5).
T3 construct: gene map; expressed in E. coli and purified
T3 sequence (Q832M5 1-254): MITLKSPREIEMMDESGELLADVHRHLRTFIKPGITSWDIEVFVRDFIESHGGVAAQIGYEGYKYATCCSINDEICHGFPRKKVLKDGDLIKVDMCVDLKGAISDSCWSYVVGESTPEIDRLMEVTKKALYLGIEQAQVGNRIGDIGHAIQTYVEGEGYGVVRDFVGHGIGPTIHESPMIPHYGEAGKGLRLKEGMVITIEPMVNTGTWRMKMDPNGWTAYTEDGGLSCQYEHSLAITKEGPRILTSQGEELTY
The assay is described as above.

The target of assay [4] is T3, EfMetAP1b. Nature of the assay: fluorescence, substrate hydrolysis. The note with it: room temperature; metal not given.
Assay [5] concerns the target T2, HsMetAP1b. Nature of the assay: fluorescence, substrate hydrolysis. Conditions: room temperature; metal not given.
Assay [6] has as its target T1, MtMetAP1c. The note with it: room temperature; metal not given.

T1 sequence (P9WK19 whole entry, looked up): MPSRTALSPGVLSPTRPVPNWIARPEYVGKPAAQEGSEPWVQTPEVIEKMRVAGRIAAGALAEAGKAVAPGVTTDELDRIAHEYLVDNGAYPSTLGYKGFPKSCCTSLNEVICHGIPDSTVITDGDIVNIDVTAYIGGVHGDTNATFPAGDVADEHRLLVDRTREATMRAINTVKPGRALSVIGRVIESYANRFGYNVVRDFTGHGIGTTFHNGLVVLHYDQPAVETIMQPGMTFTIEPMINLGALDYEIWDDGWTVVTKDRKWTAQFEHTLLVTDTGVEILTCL

Consider `CCCCCCCCCCCCCC(=O)O[C@H]1CC[C@H](NC(=O)[C@H](OC)[C@H](O)[C@@H](O)[C@H](O)/C=C/C(C)C)C(=O)N(C)C1` [F12, bengamide B], for which the inhibition at 50 µM at MtMetAP1c [1] is 72.8%; on HsMetAP1b [2] it was 84.7%; against EfMetAP1b [3], 83.3%.
`CSCC[C@H](N)C(=O)Nc1ccc2c(C)cc(=O)oc2c1` [methionyl aminomethylcoumarin]: the “fluorescence, substrate hydrolysis” value is “enzymatic activity was monitored by fluorescence readings following hydrolysis of the fluorogenic substrate, methionyl aminomethylcoumarin” on EfMetAP1b [4]; “enzymatic activity was monitored by fluorescence readings following hydrolysis of the fluorogenic substrate, methionyl aminomethylcoumarin” on HsMetAP1b [5]; “enzymatic activity was monitored by fluorescence readings following hydrolysis of the fluorogenic substrate, methionyl aminomethylcoumarin” on MtMetAP1c [6].
